The supplement of paper PMC10307832

Legend:
Assay in all cases: relative viability (nuclei count vs DMSO), 5 days (fraction); higher = more cells survive
Tanzisertib + Vorinostat = compound: O[C@H]1CC[C@H](Nc2ncc3nc(Nc4c(F)cc(F)cc4F)n([C@H]4CCOC4)c3n2)CC1 [Tanzisertib] + O=C(CCCCCCC(=O)Nc1ccccc1)NO [Vorinostat] (partner 1 µM)
Method in brief: (§1)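 Each reported value is a median over duplicate plates. It expresses relative viability: treated-well nuclei count divided by vehicle-well nuclei count. Lung cancer cell lines in 1536-well plates were dosed by pin tool a day after seeding, alone with one drug or with a fixed anchor-drug dose plus five library-drug doses (not always all listed) in √10 steps, and nuclei were counted after 5 days.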

[1] = compound: C[C@@H](N)c1ccc(C(=O)Nc2ccnc3[nH]ccc23)cc1 + Nc1ncn([C@H]2C[C@H](O)[C@@H](CO)O2)c(=O)n1 [Decitabine] (partner 2 µM)
Method in brief: as §1

[2] = compound: C[C@@H](N)c1ccc(C(=O)Nc2ccnc3[nH]ccc23)cc1 + O=C(CCCCCCC(=O)Nc1ccccc1)NO [Vorinostat] (partner 1 µM)
Method in brief: as §1

[3] = compound: C[C@@H](N)c1ccc(C(=O)Nc2ccnc3[nH]ccc23)cc1 + C[C@@H](Oc1cc(-c2cnn(C3CCNCC3)c2)cnc1N)c1c(Cl)ccc(F)c1Cl [Crizotinib] (partner 1 µM)
Method in brief: as §1

Cell Line	relative viability (Tanzisertib + Vorinostat; first compound 0.08 µM)	relative viability (Tanzisertib + Vorinostat; first compound 0.253 µM)	relative viability (Tanzisertib + Vorinostat; first compound 0.8 µM)	relative viability (Tanzisertib + Vorinostat; first compound 2.53 µM)	relative viability (Tanzisertib + Vorinostat; first compound 8 µM)	relative viability ([1]; first compound 0.04 µM)	relative viability ([1]; first compound 0.1265 µM)	relative viability ([1]; first compound 0.4 µM)	relative viability ([1]; first compound 1.265 µM)	relative viability ([1]; first compound 4 µM)	relative viability ([2]; first compound 0.04 µM)	relative viability ([2]; first compound 0.1265 µM)	relative viability ([2]; first compound 0.4 µM)	relative viability ([2]; first compound 1.265 µM)	relative viability ([2]; first compound 4 µM)	relative viability ([3]; first compound 0.04 µM)	relative viability ([3]; first compound 0.1265 µM)	relative viability ([3]; first compound 0.4 µM)	relative viability ([3]; first compound 1.265 µM)	relative viability ([3]; first compound 4 µM)
NCI-H3122	1.37	1.09	0.932	1.09	1.12	0.46	0.454	0.419	0.458	0.458	1.04	1.04	1.02	1.03	1.29	0.286	0.295	0.264	0.346	0.303
NCI-H2347	0.744	0.628	0.696	0.588	0.463	0.657	0.594	0.623	0.566	0.54	0.762	0.508	0.554	0.559	0.676	0.668	0.775	0.776	0.714	0.605
HCC-44	1.22	1.16	1.19	1.19	1.25	0.862	0.981	0.971	0.893	0.92	1.16	1.07	1.02	1.16	0.82	0.82	0.776	0.86	0.995	0.652
HCC-78	0.505	0.455	0.461	0.403	0.447	0.772	0.782	0.83	0.725	0.62	0.533	0.425	0.622	0.706	0.618	0.383	0.347	0.363	0.453	0.32
COR-L23	0.438	0.504	0.479	0.494	0.537	0.385	0.441	0.421	0.393	0.305	0.51	0.486	0.479	0.417	0.212	0.64	0.741	0.647	0.412	0.17
NCI-H1993	0.901	0.928	1.1	0.769	0.77	0.649	0.603	–	0.636	0.69	0.772	1.02	–	0.811	0.718	0.867	0.743	–	0.877	0.878
NCI-H2405	1.04	1.19	1.14	1.17	0.404	–	0.801	0.695	0.448	0.248	–	1.09	1.02	0.699	0.404	0.689	0.904	0.868	0.68	0.387
NCI-H2126	0.86	0.758	0.85	0.727	0.454	0.56	0.583	0.596	0.599	0.572	1.02	0.685	0.738	0.432	0.916	1.03	1.02	1.03	1.02	1.04
NCI-H1944	0.607	0.562	0.633	0.611	0.533	0.524	0.425	0.458	0.495	0.404	0.56	0.553	0.616	0.491	0.582	1.12	1.1	1.12	–	0.94
NCI-H2342	0.801	0.847	0.816	0.765	0.754	0.758	0.624	0.809	0.798	0.746	0.772	0.744	0.704	0.869	0.731	–	–	–	–	–
NCI-H1792	–	–	–	–	–	0.571	0.558	0.489	0.675	0.462	–	–	–	–	–	0.964	0.976	1.08	0.916	0.854
NCI-H1563	–	–	–	–	–	–	–	–	–	–	–	–	–	–	–	0.981	0.794	0.753	0.883	0.934
NCI-H522	0.913	0.902	0.773	0.762	0.836	0.704	0.683	0.727	0.694	0.715	0.921	0.907	0.892	0.913	0.753	–	–	–	–	–
NCI-H1793	0.787	0.789	0.748	0.641	0.551	0.506	0.556	0.547	–	0.463	0.894	0.905	0.991	–	1.01	–	–	–	–	–
SW 900	–	0.604	0.641	0.512	0.382	0.412	0.43	0.43	0.509	0.421	0.716	0.54	0.738	0.884	0.877	–	–	–	–	–
CAL-12T	0.896	0.663	0.909	0.893	0.755	–	–	–	–	–	0.863	0.771	0.914	0.876	0.897	0.795	0.78	0.845	0.529	0.252
EBC-1	–	–	–	–	–	–	–	–	–	–	–	–	–	–	–	0.216	0.184	0.189	0.141	0.145
IA-LM	1.2	0.899	0.912	0.939	0.822	–	–	–	–	–	1.23	0.835	1.33	1.37	1.23	1.02	0.937	1.17	1.08	0.938
NCI-H1703	–	–	–	–	–	–	–	–	–	–	–	–	–	–	–	0.565	0.611	0.641	0.577	0.71
NCI-H2228	1.03	0.626	0.777	0.728	0.518	–	–	–	–	–	0.832	0.576	0.638	0.976	0.56	0.373	0.463	0.653	0.556	0.497
NCI-H1395	0.642	1.13	0.768	0.72	0.481	0.712	0.697	0.725	–	0.642	0.622	0.772	0.704	–	0.796	–	–	–	–	–
